In ChEMBL document CHEMBL3286137, “Design, synthesis and structure-activity relationships of novel 4-phenoxyquinoline derivatives containing pyridazinone moiety as potential antitumor agents” (Eur J Med Chem, 2014):

What was measured:
[1] = target: T1, Amine oxidase [copper-containing] 3 (Homo sapiens, UniProt Q16853); assay: Inhibition of human VAP1
T1 sequence (Q16853 whole entry): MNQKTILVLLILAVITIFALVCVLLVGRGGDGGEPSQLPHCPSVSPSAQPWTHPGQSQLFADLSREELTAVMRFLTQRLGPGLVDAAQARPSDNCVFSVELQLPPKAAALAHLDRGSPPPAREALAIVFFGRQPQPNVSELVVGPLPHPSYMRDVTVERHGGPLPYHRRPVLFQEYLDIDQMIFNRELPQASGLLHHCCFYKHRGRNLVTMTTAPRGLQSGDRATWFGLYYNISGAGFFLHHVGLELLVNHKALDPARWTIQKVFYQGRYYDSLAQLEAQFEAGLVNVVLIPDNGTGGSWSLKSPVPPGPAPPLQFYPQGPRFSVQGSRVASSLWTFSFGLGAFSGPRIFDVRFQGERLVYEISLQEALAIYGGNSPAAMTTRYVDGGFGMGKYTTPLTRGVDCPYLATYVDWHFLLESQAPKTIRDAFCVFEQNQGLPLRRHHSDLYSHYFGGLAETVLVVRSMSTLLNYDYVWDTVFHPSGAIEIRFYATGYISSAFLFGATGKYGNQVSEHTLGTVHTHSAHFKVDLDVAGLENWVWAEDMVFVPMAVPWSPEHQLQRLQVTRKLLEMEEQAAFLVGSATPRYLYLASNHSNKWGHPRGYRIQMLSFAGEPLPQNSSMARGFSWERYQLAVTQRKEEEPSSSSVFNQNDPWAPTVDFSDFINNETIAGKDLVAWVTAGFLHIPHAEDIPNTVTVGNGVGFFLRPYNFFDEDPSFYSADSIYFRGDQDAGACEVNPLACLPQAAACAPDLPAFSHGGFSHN

HT-29 [2] = assay: cells; settings: Homo sapiens, HT-29, 72 h
[3] = Cytotoxicity against human U87MG cells assessed as inhibition of cell growth after 72 hrs by MTT assay; assay type: functional, cell-based, U-87MG ATCC; settings: U-87 MG
cells [4] = settings: Homo sapiens, NCI-H460, 72 h
cells [5] = settings: Homo sapiens, MKN-45, 72 h
A549 = assay: cells; settings: Homo sapiens, A549, 72 h
[6] = Ratio of foretinib IC50 to compound IC50 for human H460 cells; assay type: functional
[7] = target: Vascular endothelial growth factor receptor 2 (Homo sapiens, UniProt P35968); assay: Inhibition of KDR (unknown origin)
[8] = target: Platelet-derived growth factor receptor beta (Homo sapiens, UniProt P09619); assay: Inhibition of PDGFR beta (unknown origin)
[9] = target: Mast/stem cell growth factor receptor Kit (Homo sapiens, UniProt P10721); assay: Inhibition of c-Kit (unknown origin)
[10] = target: Hepatocyte growth factor receptor (Homo sapiens, UniProt P08581); assay: Inhibition of c-Met (unknown origin) using poly (Glu,Tyr)4:1 as substrate by homogeneous time-resolved fluorescence assay
HT-29 [11] = assay: Ratio of foretinib IC50 to compound IC50 for human HT-29 cells; assay type: functional
[12] = target: T2, Receptor-type tyrosine-protein kinase FLT3 (Homo sapiens, UniProt P36888); assay: Inhibition of Flt3 (unknown origin)
T2 sequence (P36888 whole entry): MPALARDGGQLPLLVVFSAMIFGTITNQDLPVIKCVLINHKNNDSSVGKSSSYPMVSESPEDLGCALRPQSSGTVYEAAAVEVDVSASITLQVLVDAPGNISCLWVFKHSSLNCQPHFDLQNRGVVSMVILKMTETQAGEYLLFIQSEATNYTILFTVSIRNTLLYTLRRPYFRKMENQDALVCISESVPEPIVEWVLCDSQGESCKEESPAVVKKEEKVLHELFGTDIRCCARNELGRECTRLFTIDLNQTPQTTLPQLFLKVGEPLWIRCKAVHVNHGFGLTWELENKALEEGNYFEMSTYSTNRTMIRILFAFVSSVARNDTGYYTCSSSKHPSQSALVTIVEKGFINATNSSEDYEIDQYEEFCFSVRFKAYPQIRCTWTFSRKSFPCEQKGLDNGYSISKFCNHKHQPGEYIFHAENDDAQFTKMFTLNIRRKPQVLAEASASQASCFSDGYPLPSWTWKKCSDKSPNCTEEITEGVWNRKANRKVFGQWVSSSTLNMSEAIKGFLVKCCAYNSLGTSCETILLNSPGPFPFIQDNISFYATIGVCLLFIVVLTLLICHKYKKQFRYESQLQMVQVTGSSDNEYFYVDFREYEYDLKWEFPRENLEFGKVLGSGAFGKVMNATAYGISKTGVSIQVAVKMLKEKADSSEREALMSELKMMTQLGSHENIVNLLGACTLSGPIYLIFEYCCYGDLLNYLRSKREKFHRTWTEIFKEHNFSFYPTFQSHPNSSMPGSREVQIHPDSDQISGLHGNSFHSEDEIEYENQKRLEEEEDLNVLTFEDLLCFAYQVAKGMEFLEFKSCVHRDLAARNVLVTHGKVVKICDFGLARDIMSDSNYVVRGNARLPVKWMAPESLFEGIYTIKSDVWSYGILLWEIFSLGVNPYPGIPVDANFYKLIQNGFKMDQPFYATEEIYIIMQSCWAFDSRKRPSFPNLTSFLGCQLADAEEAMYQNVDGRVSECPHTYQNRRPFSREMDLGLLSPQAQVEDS

[13] = target: Epidermal growth factor receptor (Homo sapiens, UniProt P00533); assay: Inhibition of EGFR (unknown origin)

Row | SMILES | IC50 [1] [nM] | IC50 (HT-29 [2]) [nM] | IC50 [3] [nM] | IC50 (cells [4]) [nM] | IC50 (cells [5]) [nM] | IC50 (A549) [nM] | Ratio IC50 [6] | IC50 [7] [nM] | IC50 [8] [nM] | IC50 [9] [nM] | IC50 [10] [nM] | Ratio IC50 (HT-29 [11]) | IC50 [12] [nM] | IC50 [13] [nM]
1 | O=c1ccc(=O)[nH][nH]1 | 20 | – | – | – | – | – | – | – | – | – | – | – | – | –
2 | COc1cc2c(Oc3ccc(NC(=O)c4nn(-c5ccccc5C)c(=O)cc4C)cc3F)ccnc2cc1OCCCN1CCCCC1 | – | 2810 | 2500 | 3220 | 1310 | 1920 | – | – | – | – | – | – | – | –
3 | COc1cc2c(Oc3ccc(NC(=O)c4nn(-c5ccccc5C(F)(F)F)c(=O)cc4C)cc3F)ccnc2cc1OCCCN1CCC(C)CC1 | – | 180 | 1120 | 200 | 60 | 160 | – | – | – | – | – | – | – | –
4 | COc1cc2c(Oc3ccc(NC(=O)c4nn(-c5ccc(Cl)cc5)c(=O)cc4C)cc3F)ccnc2cc1OCCCN1CCCCC1 | – | 360 | 1400 | 460 | 230 | 320 | – | – | – | – | – | – | – | –
5 | COc1cc2c(Oc3ccc(NC(=O)c4nn(-c5ccc(F)c(F)c5)c(=O)cc4C)cc3F)ccnc2cc1OCCCN1CCCC1 | – | 150 | 1400 | 170 | 80 | 220 | – | – | – | – | – | – | – | –
6 | COc1cc2c(Oc3ccc(NC(=O)c4nn(-c5ccc(Cl)cc5)c(=O)cc4C)cc3F)ccnc2cc1OCCCN1CCN(C)CC1 | – | 320 | 1560 | 440 | 40 | 270 | – | – | – | – | – | – | – | –
7 | COc1cc2c(Oc3ccc(NC(=O)c4nn(-c5cccc(F)c5)c(=O)cc4C)cc3F)ccnc2cc1OCCCN1CCC(C)CC1 | – | 300 | 1800 | 250 | 140 | 250 | – | – | – | – | – | – | – | –
8 | COc1cc2c(Oc3ccc(NC(=O)c4nn(-c5cccc(F)c5)c(=O)cc4C)cc3F)ccnc2cc1OCCCN1CCN(C)CC1 | – | 250 | 1590 | 260 | 120 | 150 | – | – | – | – | – | – | – | –
9 | COc1cc2c(Oc3ccc(NC(=O)c4nn(-c5ccccc5C(F)(F)F)c(=O)cc4C)cc3F)ccnc2cc1OCCCN1CCN(C)CC1 | – | 170 | 1170 | 240 | 40 | 170 | – | – | – | – | – | – | – | –
10 | COc1cc2c(Oc3ccc(NC(=O)c4nn(-c5ccccc5OC(F)(F)F)c(=O)cc4C)cc3F)ccnc2cc1OCCCN1CCN(C)CC1 | – | 180 | 1440 | 260 | 100 | 130 | – | – | – | – | – | – | – | –
11 | COc1cc2c(Oc3ccc(NC(=O)c4nn(-c5ccccc5C)c(=O)cc4C)cc3F)ccnc2cc1OCCCN1CCOCC1 | – | 1010 | 2000 | 1380 | 270 | 530 | – | – | – | – | – | – | – | –
12 | COc1cc2c(Oc3ccc(NC(=O)c4nn(-c5ccccc5C(F)(F)F)c(=O)cc4C)cc3F)ccnc2cc1OCCCN1CCOCC1 | – | 100 | 1060 | 130 | 30 | 50 | 1.5 | 425 | 92.3 | 4.32 | 2.15 | 1.9 | 9.28 | > 10000
13 | COc1cc2c(Oc3ccc(NC(=O)c4nn(-c5ccccc5)c(=O)cc4C)cc3F)ccnc2cc1OCCCN1CCOCC1 | – | 350 | 1600 | 450 | 110 | 720 | – | – | – | – | – | – | – | –
14 | COc1cc2c(Oc3ccc(NC(=O)c4nn(-c5ccccc5OC(F)(F)F)c(=O)cc4C)cc3F)ccnc2cc1OCCCN1CCCC1 | – | 180 | 1280 | 210 | 60 | 140 | – | – | – | – | – | – | – | –
15 | COc1cc2c(Oc3ccc(NC(=O)c4nn(-c5ccccc5C(F)(F)F)c(=O)cc4C)cc3F)ccnc2cc1OCCCN1CCCC1 | – | 140 | 1010 | 210 | 100 | 130 | – | – | – | – | – | – | – | –
16 | COc1cc2c(Oc3ccc(NC(=O)c4nn(-c5ccccc5)c(=O)cc4C)cc3F)ccnc2cc1OCCCN1CCN(C)CC1 | – | 270 | 2120 | 360 | 130 | 350 | – | – | – | – | – | – | – | –
17 | COc1cc2c(Oc3ccc(NC(=O)c4nn(-c5cccc(F)c5)c(=O)cc4C)cc3F)ccnc2cc1OCCCN1CCCCC1 | – | 290 | 1500 | 360 | 130 | 250 | – | – | – | – | – | – | – | –
18 | COc1cc2c(Oc3ccc(NC(=O)c4nn(-c5ccccc5C(F)(F)F)c(=O)cc4C)cc3F)ccnc2cc1OCCCN1CCCCC1 | – | 170 | 1150 | 210 | 90 | 140 | – | – | – | – | – | – | – | –
19 | COc1ccc(-n2nc(C(=O)Nc3ccc(Oc4ccnc5cc(OCCCN6CCCCC6)c(OC)cc45)c(F)c3)c(C)cc2=O)cc1 | – | 3200 | 1800 | 3730 | 330 | 1500 | – | – | – | – | – | – | – | –
20 | COc1cc2c(Oc3ccc(NC(=O)c4nn(-c5ccccc5)c(=O)cc4C)cc3F)ccnc2cc1OCCCN1CCCC1 | – | 220 | 1100 | 460 | 120 | 370 | – | – | – | – | – | – | – | –
21 | COc1cc2c(Oc3ccc(NC(=O)c4nn(-c5ccc(Cl)cc5)c(=O)cc4C)cc3F)ccnc2cc1OCCCN1CCC(C)CC1 | – | 180 | 1350 | 370 | 150 | 210 | – | – | – | – | – | – | – | –
22 | COc1cc2c(Oc3ccc(NC(=O)c4nn(-c5cccc(F)c5)c(=O)cc4C)cc3F)ccnc2cc1OCCCN1CCCC1 | – | 250 | 1700 | 280 | 120 | 170 | – | – | – | – | – | – | – | –
23 | COc1cc2c(Oc3ccc(NC(=O)c4nn(-c5ccccc5C)c(=O)cc4C)cc3F)ccnc2cc1OCCCN1CCN(C)CC1 | – | 3790 | 3720 | 3420 | 1630 | 2830 | – | – | – | – | – | – | – | –
